# Values of other authors as cited in US20070071809A1, “Ginger containing compositions to control pain” (priority 2005, published 2007).
# Test system: osteoarthritis of the knee
# Settings: 1500 mg per day
compound,measurement,setting,value
N[C@H]1C(O)O[C@H](CO)[C@@H](O)[C@@H]1O (some centres unmarked) [Glucosamine],knee pain in patients with osteoarthritis of the knee,"212 patients, half glucosamine, half placebo",reduce knee pain
same,pain scores versus placebo group,placebo group had worsened pain scores,statistically improved pain scores
